The results in this text go back to patent publication US20100087374A1, “Methods for Treatment and Diagnosis of Pulmonary Diseases Based on the Expression of SERCA2 Protein” (priority 2008, published 2010).

In data set [1] the test system is IL-8 release. Nature of the data set: Ozone-mediated IL-8 release with NF-κB inhibitor preincubation. Format: cell-based, human. Conditions: CF cells; 10 μM preincubation 30 min; ozone 18 h. As to the method: Ozone-mediated cytokine release was studied in polarized air-liquid interface cultures of non-CF and CF cell lines. 16HBEo- and CF4lo- cells were cultured on collagen coated 30 mm inserts. Once cells were polarized (8-10 days in culture) cells were exposed to 0, 100 or 200 ppb ozone with 200 μl media on the apical surface. At the end of exposure (18 h) additional 200 μl media was added to the apical surface. Aliquots were collected after 4 h and analyzed for the cytokine as described before.
Results are shown in FIG. 18; IL-8 (18A), G-CSF (18B) or GM-CSF (18C). Values are means±SE; n=6, and the figure is a representative of 4 individual experiments; * Significant difference from 0 ppb control, P<0.05 and # Significant difference from non-CF, P<0.05. Effect of preincubation of cells for 30 min with 10 μM [6-amino-4-(4-phenoxyphenylethylamino)quinazoline] For analysis of NF-κB activation, nuclear p65 was measured in non-CF and CF cells after exposure to ozone (E). As described above, cells were harvested and nuclear lysates were prepared after exposure to 200 ppb ozone. The cellular fractions were assessed for p65. Values are means±SE; n=6 and the data is a representative of 2 individual experiments; * Significant difference from 0 ppb control, P<0.05 and # Significant difference from non-CF, P<0.05.

In the next data set the test system is IL-8 and GM-CSF release. Nature of the data set: Ozone-mediated cytokine release with extracellular nucleotide supplementation. Format: cell-based, human. Here is the method: Ozone-mediated cytokine release was studied in polarized air-liquid interface cultures of non-CF and CF cell lines. 16HBEo- and CF4lo- cells were cultured on collagen coated 30 mm inserts. Once cells were polarized (8-10 days in culture) cells were exposed to 0, 100 or 200 ppb ozone with 200 μl media on the apical surface. At the end of exposure (18 h) additional 200 μl media was added to the apical surface. Aliquots were collected after 4 h and analyzed for the cytokine as described before. […] Apical media was collected and analyzed for IL-8 and GM-CSF.

Data set [2] has as its system Primary human bronchial epithelial cells. Nature of the data set: Ozone-mediated extracellular ATP release with CFTRinh172. The format is cell-based. Conditions: 20 μM for 30 min, then 200 ppb ozone 30 min. As to the method: Exposure of airway epithelial cells to ozone at precise levels was carried out in a computer controlled in vitro exposure chamber as described previously (78). Primary human bronchial epithelial cells cultured on collagen-coated 6-well plates were treated with 20 μM CFTRinh172 for 30 min and then exposed to either 0 ppb (−) or 200 ppb (+) ozone. ATP content of the extracellular media was analyzed after 30 min and cell death was estimated after 8 h of ozone exposure as described in the Methods. The data shown is a representative of 3 experiments (n=6). The bars represent means (SEM) of data and * indicates significant difference (p<0.05) from 0 ppb (− ozone) controls and # indicates significant difference (p<0.05) from 200 ppb exposed cells without CFTRinh172.

The test system is the same in data set [3]. Nature of the data set: Cell death after ozone exposure with CFTRinh172. The format is cell-based. Conditions: 20 μM. Here is the method: For assessing ozone toxicity, primary human airway epithelial cells were transfected either with a control or SERCA2 siRNA for 24 h and exposed to 0 ppb or 200 ppb ozone for 18 h. Following exposure, cells were analyzed for cell death using Vybrant apoptosis assay kit (Molecular Probes, Eugene, Oreg.), as described before (63). In this method, apoptotic cells bearing phosphatidylserine in the plasma membrane outer leaflet were identified as those binding Alexa Fluor 488-labeled annexin V and necrotic cells as those binding fluorescent DNA-binding dye SYTOX Green. The Alexa Fluor-488 labeled annexin-positive apoptotic and Sytox green-positive dead cells were quantified by flow cytometry. The columns represent means of data and * indicates significant difference (p<0.05) from 0 ppb controls cells. # indicates significant difference from 200 ppb controls (n=3). This experiment was repeated 4 times.
Exposure of airway epithelial cells to ozone at precise levels was carried out in a computer controlled in vitro exposure chamber as described previously (78). Primary human bronchial epithelial cells cultured on collagen-coated 6-well plates were treated with 20 μM CFTRinh172 for 30 min and then exposed to either 0 ppb (−) or 200 ppb (+) ozone. ATP content of the extracellular media was analyzed after 30 min and cell death was estimated after 8 h of ozone exposure as described in the Methods. […]

The subject of data set [4] is primary human bronchial epithelial (HBE), C-38 and IB3-1 cells. Nature of the data set: Cytotoxicity of 24 h CFTRinh172 incubation. Format: cell-based. As to conditions: 20 μM.
For another data set, the system named is SERCA2 protein. Nature of the data set: SERCA2 protein expression by Western blot after CFTRinh172 treatment. Format: cell-based, human. Conditions: 20 μM, 24 h.
The subject of data set [5] is IL-8 release. Nature of the data set: IL-8 release after thapsigargin preincubation and ozone. As to conditions: primary airway epithelial cells. The format is cell-based, human. As to the method:
Primary airway epithelial cells were cultured on collagen coated 6-well plates. Cells were preincubated with 2 μM thapsigargin for 30 min and then exposed to 200 ppb ozone for 18 h. The supernatant media was collected and analyzed for cytokines as described before. Values are means±SE; n=6 and the data is a representative of 2 individual experiments; * Significant difference from 0 ppb control, P<0.05 and # Significant difference from ozone exposed untreated cells, P<0.05.

Setting [6] is: CF45o- cells, 10 μM preincubation 30 min, ozone 200 ppb, 18 h.

In the case of `Nc1ccc2ncnc(NCCc3ccc(Oc4ccccc4)cc3)c2c1` [NF-kB inhibitor, 6-amino-4-(4-phenoxyphenylethylamino)quinazoline], the “IL-8 levels in ozone” value with IL-8 release [1] is recorded as “drop to control values”.

As for `O=c1ccn([C@@H]2O[C@H](COP(=O)(O)OP(=O)(O)OP(=O)(O)O)[C@@H](O)[C@H]2O)c(=O)[nH]1` [UTP], in the data set on IL-8 and GM-CSF release (CF cells, data not shown), the ozone-mediated cytokine release entry is “enhanced”.

Regarding `Nc1ncnc2c1ncn2[C@@H]1O[C@H](COP(=O)(O)OP(=O)(O)OP(=O)(O)O)[C@@H](O)[C@H]1O` [ATP], in the data set on IL-8 and GM-CSF release (setting [6]), the GM-CSF release entry is listed as “enhanced” and the IL-8 release result is “enhanced”.

Regarding `O=C(O)c1ccc(/C=C2\SC(=S)N(c3cccc(C(F)(F)F)c3)C2=O)cc1` [CFTRinh172], the “Ozone-mediated release of ATP” value in data set [2] is listed as “completely abolished”. Further, the “cytotoxicity of inhibitor itself” value in data set [3] (0 ppb ozone) is “negligible cytotoxicity”. For the same compound, the “cell death in ozone” value in data set [3] (200 ppb ozone 8 h) is listed as “further enhanced the cell death”. Further, the cytotoxicity entry in data set [4] was “did not cause cytotoxicity”. For the same compound, the SERCA2 expression entry in the data set with SERCA2 protein (parent CF cell line IB3-1) is “did not cause a further decrease”. Moreover, the SERCA2 protein levels result was “significant decrease” in the data set with SERCA2 protein (primary human bronchial epithelial (HBE) cells, air-liquid interface) and “significant decrease” in the data set on SERCA2 protein (wt-CFTR-corrected C-38 cells).

With `C/C=C(/C)C(=O)O[C@H]1C(C)=C2[C@H]([C@@H]1OC(=O)CCCCCCC)[C@@](C)(OC(C)=O)C[C@H](OC(=O)CCC)[C@@]1(O)[C@H]2OC(=O)[C@@]1(C)O` [Thapsigargin, thapsigargin], in the data set on IL-8 release [5] (2 μM for 30 min, then 200 ppb ozone 18 h), the “ozone mediated IL-8 release” value is recorded as “further augmented”. For the same compound, the IL-8 release entry in the data set on IL-8 release [5] (2 μM, control, 0 ppb exposed cells) was “enhanced”.
